The nature of the series: Plasma concentration of Example 101 in UUO rats by LC-MS/MS. In kind it is in vivo, rat. To be noted: for concentration at 4 h: rat, plasma, po, 30 mg/kg. From the text:
Serum for blood biochemistry analysis was collected into centrifuge tubes without coagulant four hours after final dosing. Blood plasma samples from group 3 was collected into tubes with K2EDTA four hours after final dosing. At the conclusion of the study (end of the 14-day period), animals were euthanized. Kidney tissue was collected four hours after final dosing. Ligated side kidney was divided into three copies ⅓ fix into 10% formalin for H&E analysis, ⅓ into RNA for PCR analysis of tissue biomarkers Col1a1, TGF-b1, MCP-1, IL-1b, IL-6, IL-17, TNF-a, and Timp1, and ⅓ for hydroxyproline assay analyzed by ELISA. RNA was extracted from tissue using the RNeasy mini kit (Qiagen). RNA concentration was measured using a NanoDrop One Spectrophotometer (ThermoFisher) and converted to cDNA using a High-Capacity RNA-to-cDNA kit (Invitrogen). RT-PCR was performed to measure levels of mRNA of different targets using TaqMan® Gene Expression Master Mix and TaqMan® probe/primer sets on a QuantStudio 6, Real-Time PCR System (ThermoFisher). Fold change in target gene expression was determined using the ΔΔCt method.
Samples were analyzed on a Raptor Biphenyl 2.7 μm 50×2.1 mm column. Solution A in the mobile phase was 95% water (0.1% formic acid) and solution B was 95% acetonitrile in water (0.1% formic acid), injection volume was 20 μL, and flow rate was 0.5 mL/min.
To prepare samples for analysis, serial concentrations were prepared by diluting the stock solution of analyte with a 50% acetonitrile in water solution. 5 μL working solutions (5, 10, 20, 50, 100, 500, 1000, 5000, and 10000 ng/mL) were added to 50 μL of the blank SD rat plasma to achieve calibration standards of −0.5 to 1000 ng/mL (0.5, 1, 2, 5, 10, 50, 100, 500, and 1000 ng/mL) in a total volume of 55 μL. […]
55 μL of standards, 55 μL of QC samples and 55 μL of unknown samples (50 μL of unknown rat plasma with 5 μL of blank solution) were added to 200 μL of acetonitrile containing IS mixture for precipitating protein respectively. […] 20 μL of diluted supernatant was injected into the LC/MS/MS system for quantitative analysis.

From patent US20250263370A1 (Tay Therapeutics Limited, priority 2022, published 2025) come the findings set out here.

Several values for one entry are separate records, joined by “and”; a condition that tells them apart may be missing. Equal entries are not always repeated. Where two headings read alike, the source gives them in different places.

Take `CNC(=O)c1[nH]c(C(=O)NC2CCC2)cc1O[C@@H](C)c1ccccc1` (stereo in doubt) [Example 101, N^5-cyclobutyl-N^2-methyl-3-(1-phenylethoxy)-1H-pyrrole-2,5-dicarboxamide]: under “male SD rats, oral, 4 h after final treatment, individual test subjects”, the “Plasma concentration of Example 101” value is 485 ng/mL and 959 ng/mL and 760 ng/mL and 859 ng/mL and 906 ng/mL and 1160 ng/mL and 665 ng/mL and 941 ng/mL. In addition, the concentration at 4 h by setting is: (male, SD, Mean plasma concentration of Example 101, male SD rats, oral, 4 h after final treatment, mean of 8 subjects) 846 ng/mL; (UUO rats, 30 mg/kg oral, four hours after final treatment, read-out: mean plasma concentration) 846 ng/mL.
